{"source": "patent US7250442B2", "about": "“Dihydroindol-2-one derivatives as steroid hormone nuclear receptor modulators” (Eli Lilly and Company, priority 2003, dated 2007)"}
{"target": "T1, human MR (Homo sapiens, UniProt P08235)", "T1 construct": "The full length human MR gene is cloned from a human kidney or human brain cDNA library; made in house; host or cells: Sf9 insect cells (baculovirus, pAcHLT transfer vector)", "T1 sequence (P08235 1-984)": "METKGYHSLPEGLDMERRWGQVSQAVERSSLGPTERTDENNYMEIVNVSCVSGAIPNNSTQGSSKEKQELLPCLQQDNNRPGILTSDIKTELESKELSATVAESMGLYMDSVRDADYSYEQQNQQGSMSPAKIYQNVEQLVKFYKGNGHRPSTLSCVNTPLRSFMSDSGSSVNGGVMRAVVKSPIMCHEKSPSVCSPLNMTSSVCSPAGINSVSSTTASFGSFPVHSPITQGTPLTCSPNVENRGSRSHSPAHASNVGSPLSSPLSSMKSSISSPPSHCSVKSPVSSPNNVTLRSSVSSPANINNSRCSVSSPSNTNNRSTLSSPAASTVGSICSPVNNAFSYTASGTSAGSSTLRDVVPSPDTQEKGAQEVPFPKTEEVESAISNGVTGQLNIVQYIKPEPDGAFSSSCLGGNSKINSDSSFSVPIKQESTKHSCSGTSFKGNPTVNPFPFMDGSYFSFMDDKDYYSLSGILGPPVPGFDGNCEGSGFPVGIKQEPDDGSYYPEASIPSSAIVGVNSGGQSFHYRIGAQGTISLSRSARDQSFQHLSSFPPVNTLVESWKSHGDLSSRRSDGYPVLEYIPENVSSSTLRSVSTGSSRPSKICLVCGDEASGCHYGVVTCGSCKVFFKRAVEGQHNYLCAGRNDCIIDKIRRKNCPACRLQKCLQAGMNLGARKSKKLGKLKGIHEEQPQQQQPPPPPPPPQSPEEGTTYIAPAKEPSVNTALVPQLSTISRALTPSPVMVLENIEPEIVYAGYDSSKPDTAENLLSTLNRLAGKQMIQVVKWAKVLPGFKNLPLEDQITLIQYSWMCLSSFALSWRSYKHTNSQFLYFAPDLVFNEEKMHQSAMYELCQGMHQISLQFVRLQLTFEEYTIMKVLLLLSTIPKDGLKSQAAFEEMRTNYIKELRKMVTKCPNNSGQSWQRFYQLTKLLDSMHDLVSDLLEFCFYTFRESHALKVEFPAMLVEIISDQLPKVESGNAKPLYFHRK", "test": "Mineralocorticoid Receptor Binding Assay ([3H]-aldosterone displacement)", "settings": "full length human MR expressed in Sf9 cells, 0.5 nM [3H]-aldosterone", "outline": "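Full-length human MR expressed in Sf9 cells; lysate (20-25 μg protein) incubated with 0.5 nM [3H]-aldosterone and test compound in molybdate/Tris/phosphate/glycerol buffer pH 7.5, 16 h at 4 °C. Bound ligand measured by filtration and scintillation counting; IC50 converted to Ki via Cheng-Prusoff.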", "units": {"Ki": "nM"}}
{"smiles": "Cc1cc(C2(c3cc(C)c(O)c(C)c3)C(=O)N(Cc3noc(-c4ccco4)n3)c3ccccc32)cc(C)c1O", "note": "[Example 87, 1-(5-Furan-2-yl-[1,2,4]oxadiazol-3-ylmethyl)-3,3-bis-(4-hydroxy-3,5-dimethyl-phenyl)-1,3-dihydro-indol-2-one]", "Ki": "≤ 500"}
{"smiles": "Cc1cc(C2(c3cc(C)c(O)c(C)c3)C(=O)N(Cc3c(F)cccc3Cl)c3ccccc32)cc(C)c1O", "note": "[Example 76, 1-(2-Chloro-6-fluoro-benzyl)-3,3-bis-(4-hydroxy-3,5-dimethyl-phenyl)-1,3-dihydro-indol-2-one]", "Ki": "≤ 500"}
{"smiles": "CCCCCN1C(=O)C(c2cc(C)c(O)c(C)c2)(c2cc(C)c(O)c(C)c2)c2ccccc21", "note": "[Example 77, 3,3-Bis-(4-hydroxy-3,5-dimethyl-phenyl)-1-pentyl-1,3-dihydro-indol-2-one]", "Ki": "≤ 500"}
{"smiles": "Cc1cc(C2(c3cc(C)c(O)c(C)c3)C(=O)N(Cc3c(Cl)cccc3Cl)c3ccccc32)cc(C)c1O", "note": "[Example 113, 1-(2,6-Dichloro-benzyl)-3,3-bis-(4-hydroxy-3,5-dimethyl-phenyl)-1,3-dihydro-indol-2-one]", "Ki": "≤ 500"}
{"smiles": "Cc1cc(C2(c3cc(C)c(O)c(C)c3)C(=O)N(Cc3ccccc3Cl)c3c(C)cccc32)cc(C)c1O", "note": "[Example 24, 1-(2-Chloro-benzyl)-3,3-bis-(4-hydroxy-3,5-dimethyl-phenyl)-7-methyl-1,3-dihydro-indol-2-one]", "Ki": "≤ 500"}
{"smiles": "Cc1cccc(N2C(=O)C(c3cc(C)c(O)c(C)c3)(c3cc(C)c(O)c(C)c3)c3ccccc32)c1", "note": "[Example 133, 3,3-Bis-(4-hydroxy-3,5-dimethyl-phenyl)-1-m-tolyl-1,3-dihydro-indol-2-one]", "Ki": "≤ 500"}
